Patent US9416353B2, “Covalent tethering of functional groups to proteins and substrates therefor” (Promega Corporation, priority 2004, dated 2016)

Legend:
[1] = target: hR.Luc-connector-DhaA.H272F-Flag (UniProt P0A3G2+P27652, H272F/T2A); type: cell-based; details: Western blot, anti-R.Luc antibody
[2] = target: R.Luc-connector-DhaA.H272F (UniProt P0A3G2+P27652, H272F/T2A); type: binding; details: pretreatment with non-biotinylated substrate

Row | Compound | hR.Luc-connector-DhaA.H272F-Flag fusion protein captured [1] | decrease of the efficiency of capturing [2]
1 | O=C(CCCC[C@@H]1SC[C@@H]2NC(=O)N[C@@H]21)NCCOCCOCCCCCCCl [biotin-C10H21NO2—Cl, N-{2-[2-(6-Chlorohexyloxy)-ethoxy]ethyl}-biotin-amide] | more than 50% | –
2 | N-{2-[2-(6-Chlorohexyloxy)-ethoxy]-ethyl}-tetramethylrhodamine-5-(and -6)-amide | – | about 80%
